Where two headings read alike, the source gives them in different places.
How the values were obtained:
Format in all cases: cell-based, human
[1] = system: HTT mRNA; experiment: RT-qPCR splicing assay, HTT mRNA canonical (CJ) and alternative (AJ) junction; details: Homo sapiens; for AC50: HTT alternative junction mRNA increase, read-out: HTT AJ (increase in alternative junction mRNA, AC50)
Method in brief: (§1)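 A673 or K562 cells treated 24 h at 37 °C with an 11-point 3-fold dilution series (top 10 uM, DMSO ≤0.25%). Lysates went directly to one-step RT-qPCR quantifying canonical (CJ) and alternative-exon (AJ) junctions, normalized to GAPDH, GUSB or PPIA. Values from ΔΔCt versus DMSO, RQ = 2^(−ΔΔCt), expressed as percentage response.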

[2] = system: MYB mRNA; experiment: RT-qPCR splicing assay, MYB mRNA canonical (CJ) and alternative (AJ) junction; details: Homo sapiens; for AC50: MYB alternative junction mRNA increase, read-out: MYB AJ (increase in alternative junction mRNA, AC50)
Method in brief: as §1

[3] = system: MYB; experiment: HiBiT protein abundance assay, MYB (K562 HiBiT knock-in); details: HiBiT knock-in K562 cells, 24 hours, top dose 10 μM
Method in brief: (§2)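 Endogenously HiBiT-tagged K562 lines were treated for 24 h at 37 °C with 10-point 3-fold dilutions (top 10 μM final, DMSO ≤0.25%). Lytic LgBiT complementation luminescence was normalized between unmodified K562 (PC) and DMSO-treated tagged cells (NC); IC50 was interpolated at 50% from a four-parameter logistic fit.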

[4] = system: HTT; experiment: HiBiT protein abundance assay, HTT (K562 HiBiT knock-in); details: HiBiT knock-in K562 cells, 24 hours, top dose 10 μM
Method in brief: as §2

[5] = system: Target C; experiment: HiBiT protein abundance assay, Target C (K562 HiBiT knock-in); details: HiBiT knock-in K562 cells, 24 hours, top dose 10 μM
Method in brief: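 K562 HiBiT knock-in cells (10000/well) were treated 24 h at 37° C with a 10-point 3-fold dilution series (top 10 μM final, ≤0.25% DMSO). HiBiT luminescence was read after lytic LgBiT detection. Percent response used unmodified K562 and DMSO-treated knock-in controls, and IC50 came from a four-parameter fit at 50% of untreated.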

[6] = RT-qPCR, HTT canonical junction mRNA decrease, read-out: HTT CJ (decrease in canonical junction mRNA, IC50)
[7] = canonical junction qPCR panel, Table 4, read-out: HTT IC50 (decrease in CJ mRNA levels)
[8] = RT-qPCR, MYB canonical junction mRNA decrease, read-out: MYB CJ (decrease in canonical junction mRNA, IC50)
[9] = canonical junction qPCR panel, Table 4, read-out: MYB IC50 (decrease in CJ mRNA levels)

IC50 [1, 6] | IC50 [1, 7] | IC50 [2, 8] | IC50 [2, 9] | IC50 [3] | IC50 [4] | IC50 [5] | SMILES | AC50 ([1]; RT-qPCR) | AC50 ([2]; RT-qPCR)
1000 to 10000 nM | 1000 to 10000 nM | < 100 nM | < 100 nM | < 100 nM | 100 to 1000 nM | 1000 to 10000 nM | C[C@H]1CN(c2ccc3nc(-c4cc5cn(C)nc5cc4O)nc(C(N)=O)c3c2)C[C@H](C)N1 [Compound 797] | 100 to 1000 nM | < 100 nM
100 to 1000 nM | 100 to 1000 nM | < 100 nM | < 100 nM | < 100 nM | 100 to 1000 nM | 100 to 1000 nM | Cc1cn2cc(-c3ncc4cc(N5C[C@H](C)N[C@@H](C)C5)ccc4n3)cc(F)c2n1 [Compound 803, 6-[(3S,5S)-3,5-dimethylpiperazin-1-yl]-2-{8-fluoro-2-methylimidazo[1,2-a]pyridin-6-yl}quinazoline] | 100 to 1000 nM | < 100 nM
< 100 nM | < 100 nM | < 100 nM | < 100 nM | < 100 nM | < 100 nM | 100 to 1000 nM | Cc1c(O)c(-c2ccc3cc(N4CCNC5(CC5)C4)cc(F)c3n2)cc2cn(C)nc12 [Compound 805, 5-(6-{4,7-diazaspiro[2.5]octan-7-yl}-8-fluoroquinolin-2-yl)-2,7-dimethylindazol-6-ol] | 100 to 1000 nM | < 100 nM
